In PubChem BioAssay (NCI):
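All cell lines were grown in 96-well plates and treated with compound for 48 hours. GI50 marks 50% less growth. TGI denotes the concentration required for complete inhibition of growth.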

Tests used:
Assay in all cases: NCI anticancer screen, dose series, 48 h
786-0 renal = tested on: 786-0 renal
HL-60(TB) leukemia = tested on: HL-60(TB) leukemia
HOP-62 NSCLC = tested on: HOP-62 NSCLC
IGROV1 ovarian = tested on: IGROV1 ovarian
KM12 colon = tested on: KM12 colon
NCI-H23 lung = tested on: NCI-H23 lung
OVCAR-8 ovarian = tested on: OVCAR-8 ovarian
SF-268 CNS = tested on: SF-268 CNS
SN12C renal = tested on: SN12C renal
UO-31 renal = tested on: UO-31 renal

| SMILES | TGI (786-0 renal) [µM] | TGI (HL-60(TB) leukemia) [µM] | TGI (HOP-62 NSCLC) [µM] | TGI (IGROV1 ovarian) [µM] | TGI (KM12 colon) [µM] | TGI (NCI-H23 lung) [µM] | TGI (OVCAR-8 ovarian) [µM] | TGI (SF-268 CNS) [µM] | TGI (SN12C renal) [µM] | TGI (UO-31 renal) [µM] | GI50 (786-0 renal) [µM] | GI50 (HL-60(TB) leukemia) [µM] | GI50 (HOP-62 NSCLC) [µM] | GI50 (IGROV1 ovarian) [µM] | GI50 (KM12 colon) [µM] | GI50 (NCI-H23 lung) [µM] | GI50 (OVCAR-8 ovarian) [µM] | GI50 (SF-268 CNS) [µM] | GI50 (SN12C renal) [µM] | GI50 (UO-31 renal) [µM] |
| --- | --- | --- | --- | --- | --- | --- | --- | --- | --- | --- | --- | --- | --- | --- | --- | --- | --- | --- | --- | --- |
| COC1=CC(=O)C(O)=C(CC2(C)C(C)CCC3(C)C2CCCC3(C)C)C1=O (stereo not given) | 19.1 | 8.53 | 10.7 | 28.5 | 27.3 | 8.05 | 26.2 | 25.4 | 15.3 | 17.2 |  |  |  |  |  |  |  |  |  |  |
| O=C1NC(=NCc2cccs2)O/C1=C\c1ccc2ncccc2c1 | > 20.3 | 15.3 | 18.9 | 10.5 | 24.5 | > 25 | 16.6 | 18.1 | > 25 | 14.1 | 6.21 | 4.64 | 6.1 | 3.51 | 7.45 | 7.9 | 4.27 | 5.34 | 5.86 | 4.99 |
| CN(C)c1ccc(/C=N/N=C(\C#N)[S][Sn]([Cl])([c]2ccccc2)[c]2ccccc2)cc1 | 2.83 | 5.16 | 6.02 | 4.63 | 3.94 | 3.21 | 4.91 | 3.06 | 3.12 | 3.08 | 1.48 | 0.548 | 2.63 | 1.99 | 1.8 | 1.44 | 2.15 | 1.51 | 1.59 | 1.58 |
| O=c1c(Oc2ccc(F)cc2F)cc2cnc(NC3CCOCC3)nc2n1C1CC1 | > 25 | > 25 | > 25 | > 25 | > 25 | > 25 | > 25 | > 25 | > 25 | 10.2 | > 25 | > 25 | > 25 | > 25 | > 25 | > 25 | > 25 | > 25 | > 25 | 2.21 |
| COc1cc2c3c(n(CCCN)c(=O)c2cc1OC)-c1ccc(N)cc1C3=O | 5.04 | 4.91 | 4.92 | > 50.4 | > 74.2 | 9.75 | 59.1 | 31.6 | 27.3 | > 100 | 1.91 | 0.461 | 1.55 | 1.43 | 9.26 | 1.62 | 2.86 | 1.64 | 2.98 | 37.2 |
| CC1(C)CC(=O)C(C(=O)Nc2cccs2)=C(O)C1 | > 100 | 57.7 | > 100 | > 100 | > 100 | 95.7 | > 100 | > 100 | > 100 | 81.7 |  |  |  |  |  |  |  |  |  |  |
| OCc1ccc(N2CCc3ccc(F)cc3C2)cc1Cl | 23.8 | 14.5 | 15.5 | 0.124 | 26 | 21 | 20.7 | 27 | 22.9 | 17.3 | 3.11 | 1.12 | 0.29 | 0.0202 | 10.5 | 1.86 | 7.05 | 13.1 | 8.22 | 1.52 |
| CNS(=O)(=O)NNS(=O)(=O)c1ccc(C)cc1 | > 100 | > 100 | > 100 | > 100 | > 100 | > 100 | > 100 | > 100 | > 100 | > 100 |  |  |  |  |  |  |  |  |  |  |
| C#CCCCCCC(=O)N[C@H]1C=C[C@@H]2/C=C(C)/C=C/[C@@H](C)[C@H]([C@H](C)[C@H](O)[C@@H](C)NC(C)=O)OC(=O)/C=C/C=C(C)\C=C\[C@]2(C)C1 | > 40 | 9.31 | > 40 | > 40 | > 40 | > 40 | > 40 | > 40 | > 40 | 8.95 | < 0.004 | 0.0335 | 0.0107 | 0.00681 | 0.00501 | 0.0942 | < 0.004 | 0.397 | < 0.004 | < 0.004 |
| O=C(O)CSc1cc(NS(=O)(=O)c2ccc(Br)cc2)c2ccccc2c1O | 38.3 | > 26.8 | 31.9 | 8.76 | 25.7 | 38 | 11 | 23.4 | 5.44 | 25.2 | 19.9 | 3.05 | 17.9 | 3.03 | 11.6 | 7.25 | 3.73 | 8.18 | 2.27 | 12 |
| COc1ccccc1CNCCCN1C(=O)c2ccc3c4c(ccc(c24)C1=O)C(=O)N(CCCNCc1ccccc1OC)C3=O | 0.703 | 0.453 | 0.633 | 0.399 | 0.272 | 0.443 | 2.26 | 0.834 | 0.305 | 0.458 | 0.257 | 0.212 | 0.192 | 0.148 | 0.116 | 0.179 | 0.137 | 0.257 | 0.151 | 0.196 |
| CC(C)(C)c1ccc(OCCOCCOc2ccc(C(C)(C)C)cc2S(N)(=O)=O)c(S(N)(=O)=O)c1 | > 100 | > 100 | > 100 | > 100 | > 100 | > 100 | > 100 | > 100 | > 100 | > 100 |  |  |  |  |  |  |  |  |  |  |
| N#Cc1c(CC(=O)O)cc(=O)n2c1[nH]c1ccccc12 | > 100 | > 100 | > 100 | > 100 | > 100 | > 100 | > 100 | > 100 | > 100 | > 100 |  |  |  |  |  |  |  |  |  |  |
